From the supplement of paper PMC10307832

The cell lines below were run with c1ccc2c(CCNc3ccc(Nc4ccncc4)cc3)c[nH]c2c1 [Serdemetan] + N=C(N)NC(=N)NCCc1ccccc1 [Phenformin] (partner 250 µM) (assay: relative viability (nuclei count vs DMSO), 5 days (fraction); higher = more cells survive). Details: first compound 0.04 µM.
Summary of the method: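 Lung cancer cell lines, seeded in 1536-well plates, were treated the following day by pin tool with a single drug or with five library-drug doses (not always all listed) in √10 steps on top of a fixed anchor-drug dose. Cells were fixed and nuclei stained in one step after 5 days, and nuclei were counted. Relative viability is the nuclei count for treated wells divided by that for vehicle wells, reported as medians of duplicate plates.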

Cell Line	relative viability
LCLC-97TM1	0.455
NCI-H2009	0.451
A-427	0.29
NCI-H441	0.793
NCI-H661	0.283
NCI-H1734	0.303
NCI-H460	0.47
NCI-H2347	0.52
SK-LU-1	0.484
NCI-H1395	0.448
201T	0.435
NCI-H1915	0.38
HCC-827	0.415
LXF-289	0.483
NCI-H23	0.855
NCI-H647	0.583

Cell Line	relative viability
CAL-12T	0.508
NCI-H1651	0.283
EPLC-272H	0.344
NCI-H2228	0.38
NCI-H1792	0.268
NCI-H1355	0.447
NCI-H3122	0.302
NCI-H1437	0.314
NCI-H1755	0.625
NCI-H2023	0.395
HCC-15	0.428
NCI-H1793	0.378
PC-14	0.59
EKVX	0.225
LC-2-ad	0.559
NCI-H1944	0.197

Same assay, conditions: first compound 0.1265 µM

Cell Line	relative viability
HCC-78	0.581
NCI-H322M	0.788
LCLC-97TM1	0.382
NCI-H2009	0.472
A-427	0.279
NCI-H441	0.917
NCI-H661	0.303
NCI-H1734	0.318
NCI-H460	0.505
NCI-H2347	0.382
SK-LU-1	0.573
NCI-H1395	0.448
201T	0.451
NCI-H1915	0.358
HCC-827	0.406
LXF-289	0.522
NCI-H23	0.752

Cell Line	relative viability
NCI-H647	0.669
CAL-12T	0.632
NCI-H1651	0.319
EPLC-272H	0.295
NCI-H2228	0.269
NCI-H1792	0.316
NCI-H1355	0.444
NCI-H3122	0.363
NCI-H1437	0.32
NCI-H1755	0.623
NCI-H2023	0.413
HCC-15	0.459
NCI-H1793	0.293
PC-14	0.537
EKVX	0.243
LC-2-ad	0.589
NCI-H1944	0.213

Same assay, conditions: first compound 0.4 µM

Cell Line	relative viability
HCC-78	0.595
NCI-H322M	0.774
LCLC-97TM1	0.463
NCI-H2009	0.431
A-427	0.273
NCI-H441	0.791
NCI-H661	0.254
NCI-H1734	0.338
NCI-H460	0.446
NCI-H2347	0.366
SK-LU-1	0.538
NCI-H1395	0.471
201T	0.432
NCI-H1915	0.359
LXF-289	0.5
NCI-H23	0.887

Cell Line	relative viability
NCI-H647	0.511
CAL-12T	0.502
NCI-H1651	0.224
EPLC-272H	0.301
NCI-H2228	0.362
NCI-H1792	0.283
NCI-H1355	0.466
NCI-H3122	0.352
NCI-H1437	0.315
NCI-H1755	0.564
NCI-H2023	0.351
HCC-15	0.457
NCI-H1793	0.247
EKVX	0.14
LC-2-ad	0.556
NCI-H1944	0.202

Same assay, conditions: first compound 1.265 µM

Cell Line	relative viability
HCC-78	0.581
NCI-H322M	0.718
NCI-H2009	0.307
A-427	0.189
NCI-H441	0.709
NCI-H661	0.246
NCI-H1734	0.156
NCI-H460	0.145
NCI-H2347	0.3
NCI-H1395	0.388
201T	0.353
NCI-H1915	0.318
HCC-827	0.314
LXF-289	0.457
NCI-H23	0.56
NCI-H647	0.288

Cell Line	relative viability
CAL-12T	0.562
NCI-H1651	0.205
EPLC-272H	0.278
NCI-H2228	0.238
NCI-H1792	0.127
NCI-H1355	0.332
NCI-H3122	0.236
NCI-H1437	0.298
NCI-H1755	0.469
NCI-H2023	0.254
HCC-15	0.337
NCI-H1793	0.236
PC-14	0.531
LC-2-ad	0.496
NCI-H1944	0.128

Same assay, conditions: first compound 4 µM

Cell Line	relative viability
HCC-78	0.516
NCI-H322M	0.706
LCLC-97TM1	0.41
NCI-H2009	0.366
A-427	0.198
NCI-H441	0.517
NCI-H661	0.281
NCI-H1734	0.181
NCI-H460	0.09
NCI-H2347	0.289
SK-LU-1	0.343
NCI-H1395	0.332
201T	0.432
NCI-H1915	0.334
HCC-827	0.366
LXF-289	0.517
NCI-H23	0.746

Cell Line	relative viability
NCI-H647	0.335
CAL-12T	0.561
NCI-H1651	0.213
EPLC-272H	0.294
NCI-H2228	0.21
NCI-H1792	0.198
NCI-H1355	0.432
NCI-H3122	0.311
NCI-H1437	0.37
NCI-H1755	0.52
NCI-H2023	0.205
HCC-15	0.367
NCI-H1793	0.26
PC-14	0.549
EKVX	0.241
LC-2-ad	0.579
NCI-H1944	0.154
